Test results reported in PubChem BioAssay AID1259407 (Chemical Carcinogenesis Research Information System (CCRIS), 2018).
Active and inactive are the calls of the source. How the calls were made is not given here.

Tested on: CCRIS mutagenicity, Ames/micronucleus/aberration tests
Experiment: CCRIS mutagenicity studies
[1] = Test System: AMES SALMONELLA TYPHIMURIUM, Strain/Indicator: TA98, Metabolic Activation: NONE, Method: PREINCUBATION
[2] = Test System: AMES SALMONELLA TYPHIMURIUM, Strain/Indicator: TA100, Metabolic Activation: NONE, Method: PREINCUBATION
[3] = Test System: AMES SALMONELLA TYPHIMURIUM, Strain/Indicator: TA100, Metabolic Activation: RAT, LIVER, S-9, AROCLOR 1254, Method: STANDARD PLATE
[4] = Test System: AMES SALMONELLA TYPHIMURIUM, Strain/Indicator: TA98, Metabolic Activation: HAMSTER, LIVER, S-9, AROCLOR 1254, Method: PREINCUBATION
[5] = Test System: AMES SALMONELLA TYPHIMURIUM, Strain/Indicator: TA98, Metabolic Activation: RAT, LIVER, S-9, AROCLOR 1254, Method: PREINCUBATION
[6] = Test System: AMES SALMONELLA TYPHIMURIUM, Strain/Indicator: TA100, Metabolic Activation: HAMSTER, LIVER, S-9, AROCLOR 1254, Method: PREINCUBATION
[7] = Test System: AMES SALMONELLA TYPHIMURIUM, Strain/Indicator: TA100, Metabolic Activation: RAT, LIVER, S-9, AROCLOR 1254, Method: PREINCUBATION
[8] = Test System: AMES SALMONELLA TYPHIMURIUM, Strain/Indicator: TA1535, Metabolic Activation: HAMSTER, LIVER, S-9, AROCLOR 1254, Method: PREINCUBATION
[9] = Test System: AMES SALMONELLA TYPHIMURIUM, Strain/Indicator: TA1535, Metabolic Activation: NONE, Method: PREINCUBATION
[10] = Test System: AMES SALMONELLA TYPHIMURIUM, Strain/Indicator: TA1535, Metabolic Activation: RAT, LIVER, S-9, AROCLOR 1254, Method: PREINCUBATION
[11] = Test System: AMES SALMONELLA TYPHIMURIUM, Strain/Indicator: TA1537, Metabolic Activation: HAMSTER, LIVER, S-9, AROCLOR 1254, Method: PREINCUBATION
[12] = Test System: AMES SALMONELLA TYPHIMURIUM, Strain/Indicator: TA1537, Metabolic Activation: NONE, Method: PREINCUBATION
[13] = Test System: AMES SALMONELLA TYPHIMURIUM, Strain/Indicator: TA1537, Metabolic Activation: RAT, LIVER, S-9, AROCLOR 1254, Method: PREINCUBATION
[14] = Test System: AMES SALMONELLA TYPHIMURIUM, Strain/Indicator: TA100, Metabolic Activation: NONE, Method: STANDARD PLATE

Q: How did the mutagenic call (End Point: IN VIVO MICRONUCLEUS, Test System: BONE MARROW POLYCHROMATIC ERYTHROCYTES, Species: MOUSE, Strain/Sex: DDY/MALE, Route: IP) turn out when `O=S(=O)(O)c1cc(S(=O)(=O)O)c2c(N=Nc3ccc(S(=O)(=O)O)c4ccccc34)c(O)ccc2c1` was run?
A: inactive; negative

Q: What about the mutagenic call [1] of the same molecule?
A: inactive; negative

Q: What about the mutagenic call (Test System: AMES SALMONELLA TYPHIMURIUM, Strain/Indicator: TA98, Metabolic Activation: S-9, Method: PREINCUBATION) of the same molecule?
A: inactive; negative

Q: What about the mutagenic call [2] of the same molecule?
A: inactive; negative

Q: What about the mutagenic call (Test System: AMES SALMONELLA TYPHIMURIUM, Strain/Indicator: TA100, Metabolic Activation: S-9, Method: PREINCUBATION) of the same molecule?
A: inactive; negative

Q: What about the mutagenic call (Test System: Mouse lymphoma, Strain/Indicator: L5178Y (tk+/tk-), Metabolic Activation: None, Method: Suspension/plate) of the same molecule?
A: inactive; negative

Q: What about the mutagenic call (Test System: Mouse lymphoma, Strain/Indicator: L5178Y (tk+/tk-), Metabolic Activation: Rat, Liver, S-9, Aroclor 1254, Method: Suspension/plate) of the same molecule?
A: inactive; inconclusive (previous evaluation negative)

Q: And the mutagenic call (Test System: UDS RODENT HEPATOCYTES, Strain/Indicator: THY INCORP, Metabolic Activation: NONE, Method: AUTORADIOGRAPHY)?
A: inactive; negative

Q: With `Cc1cccc2c1C(C)c1ccccc1-2` (stereo not drawn) as the molecule, how does the mutagenic call (Test System: AMES SALMONELLA TYPHIMURIUM, Strain/Indicator: TA98, Metabolic Activation: RAT, LIVER, S-9, AROCLOR 1254, Method: STANDARD PLATE) read?
A: active; positive

Q: What about the mutagenic call [3] of the same molecule?
A: active; positive

Q: `CCCCCC[C@@H](O)C/C=C\CCCCCCCC(=O)O` was tested. Which mutagenic call [4] did it give?
A: inactive; negative

Q: And the mutagenic call [1]?
A: inactive; negative

Q: And the mutagenic call [5]?
A: inactive; negative

Q: And the mutagenic call [6]?
A: inactive; negative

Q: What about the mutagenic call [2] of the same molecule?
A: inactive; negative

Q: And the mutagenic call [7]?
A: inactive; negative

Q: And the mutagenic call [8]?
A: inactive; negative

Q: And the mutagenic call [9]?
A: inactive; negative

Q: What about the mutagenic call [10] of the same molecule?
A: inactive; negative

Q: And the mutagenic call [11]?
A: inactive; negative

Q: What about the mutagenic call [12] of the same molecule?
A: inactive; negative

Q: What about the mutagenic call [13] of the same molecule?
A: inactive; negative

Q: How did the mutagenic call [4] turn out when `CC(I)C1OCC(CO)O1` (stereo not drawn) was run?
A: inactive; negative

Q: What about the mutagenic call [1] of the same molecule?
A: inactive; negative

Q: What about the mutagenic call [5] of the same molecule?
A: inactive; negative

Q: And the mutagenic call [6]?
A: active; positive

Q: And the mutagenic call [2]?
A: active; positive

Q: And the mutagenic call [7]?
A: active; positive

Q: And the mutagenic call [8]?
A: active; positive

Q: And the mutagenic call [9]?
A: active; positive

Q: And the mutagenic call [10]?
A: active; positive

Q: What about the mutagenic call [11] of the same molecule?
A: inactive; negative

Q: What about the mutagenic call [12] of the same molecule?
A: inactive; negative

Q: And the mutagenic call [13]?
A: inactive; negative

Q: And the mutagenic call (Test System: MOUSE LYMPHOMA, Strain/Indicator: L5178Y (TK+/TK-), Metabolic Activation: NONE, Method: SUSPENSION/PLATE)?
A: active; positive

Q: And the mutagenic call (Test System: UDS RAT HEPATOCYTES, Metabolic Activation: NONE, Method: AUTORADIOGRAPHY)?
A: inactive; negative

Q: `Nc1ccc2c(ccc3c4ccccc4ccc23)c1` was tested. Which mutagenic call (Test System: AMES SALMONELLA TYPHIMURIUM, Strain/Indicator: TA98, Metabolic Activation: RAT LIVER S-9, AROCLOR 1254 (10%), Method: STANDARD PLATE) did it give?
A: active; positive

Q: And the mutagenic call (Test System: AMES SALMONELLA TYPHIMURIUM, Strain/Indicator: TA98, Metabolic Activation: RAT, LIVER, CYTOSOL, AROCLOR 1254, Method: STANDARD PLATE)?
A: active; positive

Q: And the mutagenic call (Test System: AMES SALMONELLA TYPHIMURIUM, Strain/Indicator: TA98, Metabolic Activation: RAT, LIVER, MICROSOMES, AROCLOR 1254, Method: STANDARD PLATE)?
A: active; positive

Q: Which results are given for `CCCCOB(OCCCC)OCCCC`?
A: mutagenic call [4]: inactive; negative; mutagenic call [1]: inactive; negative; mutagenic call [5]: inactive; negative; mutagenic call [6]: inactive; negative; mutagenic call [2]: inactive; negative; mutagenic call [7]: inactive; negative; mutagenic call [8]: inactive; negative; mutagenic call [9]: inactive; negative; mutagenic call [10]: inactive; negative; mutagenic call [11]: inactive; negative; mutagenic call [12]: inactive; negative; mutagenic call [13]: inactive; negative

Q: `O[C@H]1[C@@H]2O[C@@H]2C=C[C@@H]1O` was tested. Which mutagenic call [1] did it give?
A: inactive; negative

Q: And the mutagenic call [2]?
A: inactive; negative

Q: What about the mutagenic call [9] of the same molecule?
A: active; positive

Q: Which results are given for `C[C@H](CCC(=O)O)[C@H]1CC[C@H]2[C@@H]3[C@H](O)C[C@@H]4C[C@H](O)CC[C@]4(C)[C@H]3C[C@H](O)[C@]12C`?
A: mutagenic call [1]: inactive; negative; mutagenic call (Test System: AMES SALMONELLA TYPHIMURIUM, Strain/Indicator: TA98, Method: PREINCUBATION): inactive; negative; mutagenic call [14]: inactive; negative; mutagenic call [3]: inactive; negative

Q: `C[C@@H]1O[C@@H]1c1ccccc1` was tested. Which mutagenic call (Test System: AMES SALMONELLA TYPHIMURIUM, Strain/Indicator: TA98, Metabolic Activation: NONE, Method: PREINCUBATION (PHOSPHATE-BUFFERED KCL OR SOLUTE-FREE WATER MEDIA)) did it give?
A: inactive; negative

Q: What about the mutagenic call (Test System: AMES SALMONELLA TYPHIMURIUM, Strain/Indicator: TA100, Metabolic Activation: NONE, Method: PREINCUBATION (PHOSPHATE-BUFFERED KCL OR SOLUTE-FREE WATER MEDIA)) of the same molecule?
A: inactive; negative

Q: And the mutagenic call (Test System: AMES SALMONELLA TYPHIMURIUM, Strain/Indicator: TA104, Metabolic Activation: NONE, Method: PREINCUBATION (PHOSPHATE-BUFFERED KCL OR SOLUTE-FREE WATER MEDIA))?
A: inactive; negative

Q: And the mutagenic call (Test System: CHINESE HAMSTER V-79, Strain/Indicator: V-79 (HPRT)/6-THIOGUANINE, Metabolic Activation: NONE)?
A: inactive; negative

Q: How did the mutagenic call [14] turn out when `c1ccc(COC[C@H]2CO2)cc1` was run?
A: active; positive

Q: For `Cc1c(N)nc([C@H](CC(N)=O)NC[C@H](N)C(N)=O)nc1C(=O)N[C@H](C(=O)N[C@H](C)[C@@H](O)[C@H](C)C(=O)N[C@H](C(=O)NCCc1nc(-c2nc(C(=O)NCCCNCCCN=C(N)CC3CCC(Cl)CC3)cs2)cs1)[C@@H](C)O)[C@@H](O[C@@H]1O[C@@H](CO)[C@@H](O)[C@H](O)[C@@H]1O[C@H]1O[C@H](CO)[C@@H](O)[C@H](OC(N)=O)[C@@H]1O)c1cnc[nH]1` (stereo partly drawn), which mutagenic call (Test System: AMES SALMONELLA TYPHIMURIUM, Strain/Indicator: TA94, Metabolic Activation: NONE, Method: PREINCUBATION) is on record?
A: active; positive

Q: What about the mutagenic call (Test System: AMES SALMONELLA TYPHIMURIUM, Strain/Indicator: TA102, Metabolic Activation: NONE, Method: PREINCUBATION) of the same molecule?
A: active; positive

Q: What does the source list for `O=C(NO)c1ccc(O)c(O)c1`?
A: mutagenic call (Test System: AMES SALMONELLA TYPHIMURIUM, Strain/Indicator: TA97, Metabolic Activation: NONE, Method: STANDARD PLATE): inactive; negative; mutagenic call (Test System: AMES SALMONELLA TYPHIMURIUM, Strain/Indicator: TA97, Metabolic Activation: RAT, LIVER, S-9, DELOR 103, Method: STANDARD PLATE): active; positive; mutagenic call (Test System: AMES SALMONELLA TYPHIMURIUM, Strain/Indicator: TA98, Metabolic Activation: NONE, Method: STANDARD PLATE): inactive; negative; mutagenic call (Test System: AMES SALMONELLA TYPHIMURIUM, Strain/Indicator: TA98, Metabolic Activation: RAT, LIVER, S-9, DELOR 103, Method: STANDARD PLATE): inactive; negative; mutagenic call [14]: inactive; negative; mutagenic call (Test System: AMES SALMONELLA TYPHIMURIUM, Strain/Indicator: TA100, Metabolic Activation: RAT, LIVER, S-9, DELOR 103, Method: STANDARD PLATE): inactive; negative; mutagenic call (Test System: AMES SALMONELLA TYPHIMURIUM, Strain/Indicator: TA102, Metabolic Activation: NONE, Method: STANDARD PLATE): inactive; negative; mutagenic call (Test System: AMES SALMONELLA TYPHIMURIUM, Strain/Indicator: TA102, Metabolic Activation: RAT, LIVER, S-9, DELOR 103, Method: STANDARD PLATE): inactive; negative
